In patent publication US20130217694A1, “METHOD OF REDUCING THE SEVERITY OF INFLAMMATORY DERMATOLOGICAL CONDITIONS” (Allergan, Inc.., priority 2003, published 2013):

Legend:
human α-2A receptor = target: T1, human α-2A receptor (Homo sapiens, UniProt P08913); settings: percent efficacy relative to brimonidine
T1 sequence (P08913 1-465): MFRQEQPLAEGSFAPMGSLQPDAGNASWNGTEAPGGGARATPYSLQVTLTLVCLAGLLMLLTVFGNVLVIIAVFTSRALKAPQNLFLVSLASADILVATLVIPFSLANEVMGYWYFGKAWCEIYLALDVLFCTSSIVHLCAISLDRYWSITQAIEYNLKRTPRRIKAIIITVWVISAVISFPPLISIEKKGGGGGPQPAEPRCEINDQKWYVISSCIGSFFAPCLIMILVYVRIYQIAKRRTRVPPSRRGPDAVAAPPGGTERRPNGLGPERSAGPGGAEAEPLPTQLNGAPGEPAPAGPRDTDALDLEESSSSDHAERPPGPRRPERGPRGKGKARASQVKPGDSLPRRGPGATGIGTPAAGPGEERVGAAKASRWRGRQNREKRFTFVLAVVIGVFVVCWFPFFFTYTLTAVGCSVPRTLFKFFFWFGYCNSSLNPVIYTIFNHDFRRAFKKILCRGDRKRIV
Procedure: (§1) The human α-2A and α-2C receptor supernatants were added, in varying amounts, to naive PC12 cells, which were then incubated for 48 hours. The transduced cell populations were replated at a lower density and grown in media containing 100 ug/ml puromycin.
(§2) Intracellular cAMP measurement was performed as follows. PC12 cells stably expressing the human α-2A or human α-2C adrenergic receptors were plated in 96-well poly-D-lysine coated plates at a density of 30,000 cells per well in 100 μl DMEM supplemented with 10% horse serum, 5% heat inactivated fetal bovine serum, 1% antibiotic-antimycotic and 100 μg/ml puromycin. Cells were grown overnight at 37° C. and 5% CO2. Cells were dosed by adding an equal volume of media containing IBMX (to a final concentration of 1 mM), forskolin (to a final concentration of 10 μM) and the appropriate drug dilution (to a final concentration of between 10^−5 M and 10^−12 M). After a 10 minute incubation, the media was aspirated and the cells lysed with 200 μl lysis buffer (Amersham Biosciences; Piscataway, N.J.). Plates were stored at −20° C. for up to 24 hours prior to assay. Intracellular cAMP was determined using the Biotrak cAMP enzyme immunoassay system (Amersham Biosciences) according to the manufacturer's instructions. Plates were read on a plate reader at 450 nm.

human α-2C receptor = target: T2, human α-2C receptor (Homo sapiens, UniProt P18825); assay: Inhibition of forskolin-induced cAMP accumulation in PC12 cells expressing human α-2C receptor; format: cell-based; settings: percent efficacy relative to brimonidine
T2 construct: expressed in transfected cells; host or cells: PC12 cells (retroviral vector pCL BABE Puro)
T2 sequence (P18825 1-462): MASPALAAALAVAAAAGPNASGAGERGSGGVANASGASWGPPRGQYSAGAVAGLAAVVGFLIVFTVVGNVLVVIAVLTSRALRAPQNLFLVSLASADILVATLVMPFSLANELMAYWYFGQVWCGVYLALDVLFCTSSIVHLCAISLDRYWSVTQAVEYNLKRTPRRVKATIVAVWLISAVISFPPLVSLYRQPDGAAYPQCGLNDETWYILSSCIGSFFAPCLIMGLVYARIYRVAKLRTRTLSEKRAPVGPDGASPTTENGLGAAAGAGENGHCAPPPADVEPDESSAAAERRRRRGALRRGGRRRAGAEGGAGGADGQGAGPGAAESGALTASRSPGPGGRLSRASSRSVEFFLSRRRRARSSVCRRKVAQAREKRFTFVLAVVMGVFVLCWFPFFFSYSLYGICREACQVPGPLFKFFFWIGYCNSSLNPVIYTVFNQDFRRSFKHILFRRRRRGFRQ
Procedure: as §1, §2

[1] = target: T3, bovine α-1A adrenergic receptor (Bos taurus, UniProt P18130); assay: Intracellular Ca+2 response in HEK293 cells expressing bovine α-1A receptor; format: cell-based; settings: for bovine α1A % E: percent efficacy relative to phenylephrine
T3 sequence (P18130 1-466): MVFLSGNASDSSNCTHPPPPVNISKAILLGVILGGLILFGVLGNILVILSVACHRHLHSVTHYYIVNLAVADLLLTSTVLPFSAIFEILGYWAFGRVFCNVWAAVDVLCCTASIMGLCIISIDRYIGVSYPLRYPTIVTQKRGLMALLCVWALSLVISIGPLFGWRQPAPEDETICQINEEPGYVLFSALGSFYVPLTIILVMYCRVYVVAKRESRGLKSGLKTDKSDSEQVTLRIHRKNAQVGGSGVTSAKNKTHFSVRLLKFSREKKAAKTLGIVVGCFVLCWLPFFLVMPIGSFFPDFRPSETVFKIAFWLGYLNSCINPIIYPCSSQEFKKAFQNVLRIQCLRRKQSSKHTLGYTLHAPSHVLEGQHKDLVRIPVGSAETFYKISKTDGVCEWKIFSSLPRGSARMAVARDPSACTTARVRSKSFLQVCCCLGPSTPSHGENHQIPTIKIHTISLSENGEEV
Procedure: (§3) The bovine α-1A and hamster α-1B receptor supernatants were added, in varying amounts, to naive HEK293 cells, which were then incubated for 48 hours. The transduced cell populations were replated at a lower density and grown in media containing 0.25 ug/ml puromycin. […] Receptor density was measured in a prazosin radioligand binding assay.
(§4) Intracellular Ca^+2 responses were measured as follows in HEK293 cells stably expressing either the bovine α-1A or hamster α-1B adrenergic receptor. Between 40,000 to 50,000 cells were plated per well in 96-well poly-D-lysine coated plates in 0.2 ml DMEM containing 10% heat-inactivated fetal calf serum, 1% antibiotic-antimycotic and 0.25 μg/ml puromycin one day prior to use. Cells were washed twice with HBSS supplemented with 10 mM HEPES, 2.0 mM CaCl2 and 2.5 mM probenicid, and subsequently incubated at 37° C. for 60 minutes with 4 μM Fluo-4 (Molecular Probes; Eugene, Oreg.). The extracellular dye was washed from the plates twice prior to placing the plates in the fluorometric imaging plate reader (FLIPR; Molecular Devices; Sunnyvale, Calif.). Ligands were diluted in HBSS and aliquoted into a 96-well microplate. Drugs were tested over the concentration range of 0.64 nM to 10,000 nM. Data for Ca^+2 responses were obtained in arbitrary fluorescence units.

[2] = target: T4, hamster α-1B adrenergic receptor (Mesocricetus auratus, UniProt P18841); format: cell-based; settings: for hamster α1B % E: percent efficacy relative to phenylephrine
T4 sequence (P18841 1-515): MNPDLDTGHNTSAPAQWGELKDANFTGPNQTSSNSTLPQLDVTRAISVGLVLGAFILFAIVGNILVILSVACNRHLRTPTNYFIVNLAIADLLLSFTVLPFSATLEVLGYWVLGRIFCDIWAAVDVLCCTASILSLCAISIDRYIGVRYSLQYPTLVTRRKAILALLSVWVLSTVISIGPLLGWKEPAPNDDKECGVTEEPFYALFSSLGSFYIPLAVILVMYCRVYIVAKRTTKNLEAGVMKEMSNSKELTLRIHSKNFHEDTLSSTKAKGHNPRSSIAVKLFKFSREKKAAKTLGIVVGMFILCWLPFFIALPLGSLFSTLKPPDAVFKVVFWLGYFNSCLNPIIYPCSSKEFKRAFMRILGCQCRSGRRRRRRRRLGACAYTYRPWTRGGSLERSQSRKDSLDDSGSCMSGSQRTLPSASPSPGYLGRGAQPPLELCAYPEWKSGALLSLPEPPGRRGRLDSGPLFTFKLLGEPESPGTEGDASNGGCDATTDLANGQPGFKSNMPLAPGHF
Procedure: as §3, §4

mice [3] = assay: Phenylephrine-induced tactile hypersensitivity in mice; format: in vivo, mouse; settings: for tactile (mechanical) hypersensitivity score: Phenylephrine (100 ng/kg I.P.), cumulative score 0 to 16, mean ± SEM
Procedure: To dissect the contribution of the sympathetic nervous system to sensory sensitization, mouse models having different mechanisms of sensory sensitization were developed. Tactile hypersensitivity was measured in mice following intrathecal or intraperitoneal injection of an inducing agent by scoring the response to light stroking of the mouse flank with a paintbrush.
(§5) Spinal drug injections were performed as follows. Mice (20-30 g) were injected intrathecally as described in Hylden and Wilcox, Eur. J. Pharmacol. 67:313-316 (1980). Briefly, a sterile 30-gauge ½ inch needle attached to a microsyringe was inserted between the L5 and L6 vertebrae. The mouse was held firmly by the pelvic girdle in one hand, while the syringe was held in the other hand at an angle of approximately 20° above the vertebral column. The needle was inserted into the tissue to one side of the L6 spinous process, into the groove between the spinous and transverse processes. The needle angle was decreased to about 10°, and the needle slowly advanced forward into the intervertebral space until a pop was felt and there was a visible serpentine tail movement. Compounds were slowly injected in the subarachnoid space in a volume of 5 μl. Each compound was tested at multiple doses. The minimal efficacious dose was used for all subsequent experiments.
Sensitivity to light touch was quantified by scoring the response of mice to light stroking of their flanks with a small paintbrush, which is not normally painful. […] The scores were summed to generate a cumulative score of 0 to 16 as described in Minami et al., Pain 57:217-223 (1994). Statistical calculations of significance for in vivo studies were done using a two-tailed Students t-test.

mice [4] = assay: Sulprostone-induced tactile hypersensitivity in mice; format: in vivo, mouse; settings: for tactile (mechanical) hypersensitivity score: Sulprostone (200 ng IT), cumulative score 0 to 16, mean ± SEM; for analgesic activity in sulprostone-induced tactile hypersensitivity: result in words
Procedure: The activity of a synthetic EP1/EP3 receptor-selective prostaglandin agonist, sulprostone, also was assayed.
as §5, with “Mice (20-30 g) were injected intrathecally as described in Hylden and Wilcox, Eur. J. Pharmacol. 67:313-316 (1980).” left out
(§6) Sensitivity to light touch was quantified by scoring the response of mice to light stroking of their flanks with a small paintbrush, which is not normally painful. […] Statistical calculations of significance for in vivo studies were done using a two-tailed Students t-test.

mice [5] = assay: NMDA-induced tactile hypersensitivity in mice; format: in vivo, mouse; settings: for tactile (mechanical) hypersensitivity score: NMDA (100 ng IT), cumulative score 0 to 16, mean ± SEM; for inhibition of NMDA-induced tactile hypersensitivity: result in words
Procedure: as §5, with “Mice (20-30 g) were injected intrathecally as described in Hylden and Wilcox, Eur. J. Pharmacol. 67:313-316 (1980).” left out
as §6

Clc1ccc2nsnc2c1NC1=NCCN1 [Tizanidine]
human α2A % E (human α-2A receptor): 93%
human α2C % E (human α-2C receptor): 85%
bovine α1A % E [1]: 63%
agonist activity at the α-1A receptor ([1]; result in words): partial agonists
hamster α1B % E [2]: 61%
agonist activity at the α-1B receptor ([2]; result in words): partial agonists

CCN(Cc1cc(Br)ccc1OCc1ccccc1)c1ccc(C(=O)O)cn1 [EP1 antagonist]
tactile (mechanical) hypersensitivity score (mice [3]): 9.8 ± 0.7
tactile (mechanical) hypersensitivity score (mice [4]): 4.0 ± 1.2
analgesic activity in sulprostone-induced tactile hypersensitivity (mice [4]; wildtype mice): completely blocked
tactile (mechanical) hypersensitivity score (mice [5]): 11.4 ± 1.53

CC12CC3CC(C)(C1)CC(N)(C3)C2.Cl [Memantine, 1-amino-3,5-dimethyladamantane hydrochloride]
tactile (mechanical) hypersensitivity score (mice [3]): 11.0 ± 0.7
tactile (mechanical) hypersensitivity score (mice [4]): 14.3 ± 0.8
tactile (mechanical) hypersensitivity score (mice [5]): 4.2 ± 0.9
inhibition of NMDA-induced tactile hypersensitivity (mice [5]; wildtype mice): blocked

NCC1(CC(=O)O)CCCCC1 [Gabapentin]
tactile (mechanical) hypersensitivity score (mice [3]): 13.0
tactile (mechanical) hypersensitivity score (mice [4]): 3.2 ± 0.5
analgesic activity in sulprostone-induced tactile hypersensitivity (mice [4]; wildtype mice): inhibited tactile hypersensitivity
tactile (mechanical) hypersensitivity score (mice [5]): 3.7 ± 0.8
inhibition of NMDA-induced tactile hypersensitivity (mice [5]; wildtype mice): inhibited tactile hypersensitivity

CN[C@H](CC(=O)O)C(=O)O [NMDA]
dose of maximal tactile hypersensitivity effect (mice [5]; intrathecal, wildtype mice): 100 ng

CNC[C@H](O)c1cccc(O)c1 [Phenylephrine]
strongly tactile hypersensitivity-inducing dose (mice [3]; i.p., wildtype mice): 0.03 µg/kg
dose resulting in maximal hypersensitivity (mice [3]; i.p., α-2A knockout mice): 0.0003 µg/kg
dose resulting in maximal hypersensitivity (mice [3]; i.p., α-2C knockout mice): 0.0001 µg/kg
dose at which significant tactile hypersensitivity starts (mice [3]; intraperitoneal, wildtype mice): 0.003 µg/kg
dose at which significant tactile hypersensitivity starts (mice [3]; intrathecal, wildtype mice): 3 ng
human α2C % E (human α-2C receptor): 87%
bovine α1A % E [1]: 110%
hamster α1B % E [2]: 110%

CS(=O)(=O)NC(=O)CCC/C=C\C[C@H]1C(=O)C[C@@H](O)[C@@H]1/C=C/[C@@H](O)COc1ccccc1 [Sulprostone]
maximal dose for tactile hypersensitivity (mice [4]; intrathecal, wild-type and α-2C knockout mice): 200 ng
maximally effective dose for tactile hypersensitivity (mice [4]; intrathecal, α-2A knockout mice): 30 ng

COc1cc2nc(N3CCN(C(=O)c4ccco4)CC3)nc(N)c2cc1OC [Prazosin]
analgesic activity in sulprostone-induced tactile hypersensitivity (mice [4]; wildtype mice): no analgesic activity
analgesic activity in sulprostone-induced tactile hypersensitivity (mice [4]; α-2C knockout mice): no analgesic activity

COc1ccccc1N1CCN(CCCNc2c(C)c(=O)n(C)c(=O)n2C)CC1 [5-MU, 5-methyl urapidil]
tactile (mechanical) hypersensitivity score (mice [3]): 5.0 ± 1.0
inhibition of phenylephrine-induced tactile hypersensitivity (mice [3]; wildtype mice, result in words): block the hypersensitive response
tactile (mechanical) hypersensitivity score (mice [4]): 12.0 ± 1.0
tactile (mechanical) hypersensitivity score (mice [5]): 13.3 ± 0.8
